By EC50 is commonly meant the concentration that produces a half-maximal response. Read a low EC50 as greater potency.

The values below come from patent US12552846B2, “Modified BCL9 mimetic peptides” (Sapience Therapeutics, Inc., priority 2019, dated 2026).

Molecules are shown by their SMILES. Square brackets hold non-standard residues; d marks the D form. Peptide text beside a SMILES is read from it. d1Nal = N[C@H](Cc1cccc2ccccc12)C(=O)O; d2Nal = N[C@H](Cc1ccc2ccccc2c1)C(=O)O Bounds are passed on as bounds.

The subject of this series is HL60 promyelocytic leukemia cells. The series is described as follows: Cytotoxicity assay in HL60 cells (Annexin V FITC / PI flow cytometry). The following applies: 48 hours; for EC50: 0-80 μM, % Viability (Annexin V low, PI low). The format is cell-based. As for the experimental part: We examined the cytotoxicity of peptides BCL-26 and BCL-27 using an assay in HL60 promyelocytic leukemia cells. HL60 PML suspension cells were set at a density of 3.5×10^3 cells/well in 150 μL of RPMI+1.5% fetal bovine serum (FBS) in a 96 well dish. BCL-26 or BCL-27, reconstituted at a concentration of 10 mg/mL in 20 mM His, pH 7.5, was added to each well at a volume of 50 μL to a final concentration range of 0-80 μM. Cells were incubated with peptide for 48 hours at 37° C. Cell viability was quantified by flow cytometry using abcam Annexin V FITC apoptosis detection kit. Briefly, cells were washed with PBS and resuspended in 1× assay buffer containing Annexin V FITC and propidium iodide (PI). Annexin V detects apoptotic cells, and PI stains dead cells. After staining, apoptotic cells show green fluorescence, dead cells show red and green fluorescence, and live cells show little or no fluorescence. Cells were selected for analysis based on forward scatter (FSC) vs. side scatter (SSC), and analyzed by BD Accuri C6 Plus flow cytometer to detect Annexin V-FITC binding (Ex=488 nm; Em=530 nm) using FITC signal detector and PI staining by the phycoerythrnn emission signal detector. Percentage of Annexin V^low and PI^low were quantified and presented as % Viability.
We examined the cytotoxicity of additional retro inverso and mixed chirality BCL9 mimetic peptides in HL60 cells using the assay described above.
On the technique in general: In flow cytometry, cells or beads pass a laser one at a time.

As to `CC(C)C[C@@H](NC(=O)[C@@H](CCC(N)=O)NC(=O)[C@@H](C)NC(=O)[C@@H](CC(C)C)NC(=O)[C@@H](CCCNC(=N)N)NC(=O)[C@@H](C)NC(=O)[C@@H](CC(C)C)NC(=O)[C@@H](CCC(N)=O)NC(=O)[C@@H](CCCNC(=N)N)NC(=O)[C@@H](C)NC(=O)[C@@H](CC(C)C)NC(=O)[C@@H](Cc1c[nH]c2ccccc12)NC(=O)[C@H](N)Cc1c[nH]c2ccccc12)C(=O)N[C@H](C)C(=O)O` [BCL-12] (H-[dW][dW][dL][dA][dR][dQ][dL][dA][dR][dL][dA][dQ][dL][dA]-OH; N-terminus and C-terminus assumed), the cytotoxic activity entry is listed as “no cytotoxic activity” and the EC50 was above 80000 nM.

With `CC(C)C[C@@H](NC(=O)[C@@H](Cc1c[nH]c2ccccc12)NC(=O)[C@H](N)Cc1c[nH]c2ccccc12)C(=O)N[C@H](C)C(=O)N[C@H](CCCNC(=N)N)C(=O)N[C@H](CCC(N)=O)C(=O)N[C@H](CC(C)C)C(=O)N[C@H](CCC(=O)O)C(=O)N[C@H](CCCNC(=N)N)C(=O)N[C@H](CC(C)C)C(=O)N[C@H](C)C(=O)N[C@H](CCC(N)=O)C(=O)N[C@H](CC(C)C)C(=O)N[C@H](C)C(=O)N[C@H](CCCCN)C(=O)N[C@H](CC(C)C)C(=O)N[C@@H](C(=O)N1CCC[C@@H]1C(=O)N[C@@H](C(=O)O)C(C)C)[C@H](C)O` [BCL-76] (H-[dW][dW][dL][dA][dR][dQ][dL][dE][dR][dL][dA][dQ][dL][dA][dK][dL][dT][dP][dV]-OH; N-terminus and C-terminus assumed), the EC50 is above 10000 nM.

The molecule `CC(C)C[C@@H](NC(=O)[C@@H](Cc1c[nH]c2ccccc12)NC(=O)[C@H](N)Cc1cccc2ccccc12)C(=O)N[C@H](C)C(=O)N[C@H](CCCNC(=N)N)C(=O)N[C@H](CCC(N)=O)C(=O)N[C@H](CC(C)C)C(=O)N[C@H](C)C(=O)N[C@H](CCCNC(=N)N)C(=O)N[C@H](CC(C)C)C(=O)N[C@H](C)C(=O)N[C@H](CCC(N)=O)C(=O)N[C@H](CC(C)C)C(=O)N[C@H](C)C(=O)N[C@H](CCCCN)C(=O)N[C@H](CC(C)C)C(=O)N[C@@H](C(=O)N1CCC[C@@H]1C(=O)N[C@@H](C(=O)O)C(C)C)[C@H](C)O` [BCL-77] (H-[d1Nal][dW][dL][dA][dR][dQ][dL][dA][dR][dL][dA][dQ][dL][dA][dK][dL][dT][dP][dV]-OH; N-terminus and C-terminus assumed) gave an EC50 below 2000 nM.

Molecule `CC(C)C[C@@H](NC(=O)[C@@H](Cc1c[nH]c2ccccc12)NC(=O)[C@H](N)Cc1ccc2ccccc2c1)C(=O)N[C@H](C)C(=O)N[C@H](CCCNC(=N)N)C(=O)N[C@H](CCC(N)=O)C(=O)N[C@H](CC(C)C)C(=O)N[C@H](C)C(=O)N[C@H](CCCNC(=N)N)C(=O)N[C@H](CC(C)C)C(=O)N[C@H](C)C(=O)N[C@H](CCC(N)=O)C(=O)N[C@H](CC(C)C)C(=O)N[C@H](C)C(=O)N[C@H](CCCCN)C(=O)N[C@H](CC(C)C)C(=O)N[C@@H](C(=O)N1CCC[C@@H]1C(=O)N[C@@H](C(=O)O)C(C)C)[C@H](C)O` [BCL-78] (H-[d2Nal][dW][dL][dA][dR][dQ][dL][dA][dR][dL][dA][dQ][dL][dA][dK][dL][dT][dP][dV]-OH; N-terminus and C-terminus assumed) displayed an EC50 below 2000 nM.

`CC(C)C[C@@H](NC(=O)[C@@H](Cc1c[nH]c2ccccc12)NC(=O)[C@H](N)Cc1ccccc1)C(=O)N[C@H](C)C(=O)N[C@H](CCCNC(=N)N)C(=O)N[C@H](CCC(N)=O)C(=O)N[C@H](CC(C)C)C(=O)N[C@H](C)C(=O)N[C@H](CCCNC(=N)N)C(=O)N[C@H](CC(C)C)C(=O)N[C@H](C)C(=O)N[C@H](CCC(N)=O)C(=O)N[C@H](CC(C)C)C(=O)N[C@H](C)C(=O)N[C@H](CCCCN)C(=O)N[C@H](CC(C)C)C(=O)N[C@@H](C(=O)N1CCC[C@@H]1C(=O)N[C@@H](C(=O)O)C(C)C)[C@H](C)O` [BCL-79] (H-[dF][dW][dL][dA][dR][dQ][dL][dA][dR][dL][dA][dQ][dL][dA][dK][dL][dT][dP][dV]-OH; N-terminus and C-terminus assumed) came in with an EC50 below 2000 nM.

`CC(C)C[C@@H](NC(=O)[C@@H](Cc1c[nH]c2ccccc12)NC(=O)[C@H](N)Cc1c[nH]c2ccccc12)C(=O)N[C@H](C)C(=O)N[C@H](CCCNC(=N)N)C(=O)N[C@H](CCC(N)=O)C(=O)N[C@H](CC(C)C)C(=O)N[C@H](C)C(=O)N[C@H](CCCNC(=N)N)C(=O)N[C@H](CC(C)C)C(=O)N[C@H](CCCNC(=N)N)C(=O)N[C@H](CCC(N)=O)C(=O)N[C@H](CC(C)C)C(=O)N[C@H](C)C(=O)N[C@H](CCCCN)C(=O)N[C@H](CC(C)C)C(=O)N[C@@H](C(=O)N1CCC[C@@H]1C(=O)N[C@@H](C(=O)O)C(C)C)[C@H](C)O` [BCL-80] (H-[dW][dW][dL][dA][dR][dQ][dL][dA][dR][dL][dR][dQ][dL][dA][dK][dL][dT][dP][dV]-OH; N-terminus and C-terminus assumed) came in with an EC50 below 2000 nM.

`CC(C)C[C@@H](NC(=O)[C@@H](Cc1ccccc1)NC(=O)[C@H](N)Cc1c[nH]c2ccccc12)C(=O)N[C@H](C)C(=O)N[C@H](CCCNC(=N)N)C(=O)N[C@H](CCC(N)=O)C(=O)N[C@H](CC(C)C)C(=O)N[C@H](C)C(=O)N[C@H](CCCNC(=N)N)C(=O)N[C@H](CC(C)C)C(=O)N[C@H](C)C(=O)N[C@H](CCC(N)=O)C(=O)N[C@H](CC(C)C)C(=O)N[C@H](C)C(=O)N[C@H](CCCCN)C(=O)N[C@H](CC(C)C)C(=O)N[C@@H](C(=O)N1CCC[C@@H]1C(=O)N[C@@H](C(=O)O)C(C)C)[C@H](C)O` [BCL-81] (H-[dW][dF][dL][dA][dR][dQ][dL][dA][dR][dL][dA][dQ][dL][dA][dK][dL][dT][dP][dV]-OH; N-terminus and C-terminus assumed) registered an EC50 of 2000 to 10000 nM.

Molecule `CC(C)C[C@@H](NC(=O)[C@H](N)Cc1c[nH]c2ccccc12)C(=O)N[C@H](CC(C)C)C(=O)N[C@H](C)C(=O)N[C@H](CCCNC(=N)N)C(=O)N[C@H](CCC(N)=O)C(=O)N[C@H](CC(C)C)C(=O)N[C@H](C)C(=O)N[C@H](CCCNC(=N)N)C(=O)N[C@H](CC(C)C)C(=O)N[C@H](C)C(=O)N[C@H](CCC(N)=O)C(=O)N[C@H](CC(C)C)C(=O)N[C@H](C)C(=O)N[C@H](CCCCN)C(=O)N[C@H](CC(C)C)C(=O)N[C@@H](C(=O)N1CCC[C@@H]1C(=O)N[C@@H](C(=O)O)C(C)C)[C@H](C)O` [BCL-82] (H-[dW][dL][dL][dA][dR][dQ][dL][dA][dR][dL][dA][dQ][dL][dA][dK][dL][dT][dP][dV]-OH; N-terminus and C-terminus assumed) yielded an EC50 of 2000 to 10000 nM.

`CC(C)C[C@@H](NC(=O)[C@@H](CCCNC(=N)N)NC(=O)[C@@H](C)NC(=O)[C@@H](CC(C)C)NC(=O)[C@@H](CCC(N)=O)NC(=O)[C@@H](CCCNC(=N)N)NC(=O)[C@@H](CCC(=O)O)NC(=O)[C@@H](CC(C)C)NC(=O)[C@@H](Cc1c[nH]c2ccccc12)NC(=O)[C@H](N)Cc1c[nH]c2ccccc12)C(=O)N[C@H](C)C(=O)N[C@H](CCC(N)=O)C(=O)N[C@H](CC(C)C)C(=O)N[C@H](C)C(=O)N[C@H](CCCCN)C(=O)N[C@H](CC(C)C)C(=O)N[C@@H](C(=O)N1CCC[C@@H]1C(=O)N[C@@H](C(=O)O)C(C)C)[C@H](C)O` [BCL-83] (H-[dW][dW][dL][dE][dR][dQ][dL][dA][dR][dL][dA][dQ][dL][dA][dK][dL][dT][dP][dV]-OH; N-terminus and C-terminus assumed): the concentration giving a half-maximal response (EC50) is 2000 to 10000 nM.
